Measurements as given in US6794408B2, “Drechsleranol derivatives, processes for their preparation and their use” (Aventis Pharma Deutschland GmbH, priority 2002, dated 2004).

Legend:
[1] = target: JNK-3 (Homo sapiens, UniProt P53779); test: JNK-3 assay (HTRF, JNK-3/GST-ATF2); assay type: biochemical; conditions: ATP 15 μM, 37° C., 20 minutes
Experimental: The assay is carried out on a CyBio pipetter system in a 384-hole plate format. The assay contains 10 μL of sample (extract or pure substance, for example a compound of formula (II) or of formula (III)) in 3% DMSO, 10 μL of an enzyme/substrate mixture (JNK-3/GST-ATF2) and 10 μL of ATP in a final volume of 30 μL. After incubation at 37° C. for 20 minutes, 50 μL of the HTRF antibody mixture (XL665-anti-GST/(Eu)cryptate anti-P-ATF2) are added. After 120 minutes at room temperature, the signal emission of the energy transfer and of europium at 665 and 615 nm is measured after the samples have been stimulated at 340 nm in a Victor^2 (WALLAC).
Buffer I for the Dilution of JNK3, GST-ATF2, ATP:
Buffer II for the Dilution of the HTRF Reagents:
Each plate contains 16 positive controls (maximum energy transfer, buffer I instead of samples), 8 blank controls (minimum energy transfer, buffer II instead of ATP) and 8 holes which contain EDTA 200 μM.
The results are calculated as follows:
Firstly, the signal ratio=(intensity (665 nm)/intensity (615 nm)) is determined. A blank correction is then made using the following formula:
delta F(%)=[(ratio (sample)−ratio(minimum))/(ratio (minimum))]×100
The activity of the samples is then calculated in the following manner:
Inhibition (%)=100×[1−(delta F(sample)/delta F(maximum))]

[2] = target: hCK1ε (Homo sapiens, UniProt P49674); test: hCK1ε assay (33P-ATP, casein-coated plates); assay type: biochemical; conditions: 0.4 μM cold ATP, 37° C., one hour
hCK1ε, sequence (P49674 whole entry): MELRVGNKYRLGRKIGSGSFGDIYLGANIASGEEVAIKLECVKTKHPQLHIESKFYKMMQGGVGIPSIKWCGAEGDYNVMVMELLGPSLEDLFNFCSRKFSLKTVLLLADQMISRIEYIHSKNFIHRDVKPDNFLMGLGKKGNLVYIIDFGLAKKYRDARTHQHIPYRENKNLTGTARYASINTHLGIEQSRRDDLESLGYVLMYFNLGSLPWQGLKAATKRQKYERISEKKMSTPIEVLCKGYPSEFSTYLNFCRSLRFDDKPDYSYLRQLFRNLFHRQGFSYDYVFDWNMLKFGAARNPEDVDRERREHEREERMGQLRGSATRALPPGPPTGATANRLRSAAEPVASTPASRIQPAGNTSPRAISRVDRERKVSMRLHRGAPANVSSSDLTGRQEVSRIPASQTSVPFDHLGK
Experimental: The assay is carried out in a Jobi-Well (CyBio) and Biomek 2000 pipetter system in the 384-hole plate format. The 384-hole plates are coated with 50 μL per well of a casein solution of the concentration 100 μg/mL in coating buffer (corresponds to 5 μg of casein per well, casein Sigma) and stored overnight at 4° C. Washing four times with 90 μL of wash solution 1 (50 mM HEPES pH 7.4 and 150 mM NaCl) is then carried out. The reaction is carried out in a final volume of 50 μL. During the course of this, 10 μL of dilute natural substance extract in each case, for example a compound of formula (II) or a compound of formula (III), 20 μL of hCK1ε enzyme solution (corresponds to 29 ng of […] per well) and 20 μL of ATP solution (final concentration: 0.4 μCi of ^33P-γ-ATP radiolabeled (“hot”) and 0.4 μM of cold ATP per well) are pipetted onto the coated plates. The plates are then incubated at 37° C. for one hour. The plates are then washed four times with 75 μL of wash solution 2 (phosphoric acid, 3%) and measured for 30 seconds in a MicroBeta Trilux counter (WALLAC).
hCK1ε Enzyme Solution: 1.45 μg of Recombinant hCK1ε per mL of Kinase Buffer
ATP Solution: 20 μCi/mL of ^33P-γ-ATP and 1 μM of Cold ATP […]
The inhibition of a sample can be calculated according to the following formula: […]

JNK-3, sequence (P53779 whole entry): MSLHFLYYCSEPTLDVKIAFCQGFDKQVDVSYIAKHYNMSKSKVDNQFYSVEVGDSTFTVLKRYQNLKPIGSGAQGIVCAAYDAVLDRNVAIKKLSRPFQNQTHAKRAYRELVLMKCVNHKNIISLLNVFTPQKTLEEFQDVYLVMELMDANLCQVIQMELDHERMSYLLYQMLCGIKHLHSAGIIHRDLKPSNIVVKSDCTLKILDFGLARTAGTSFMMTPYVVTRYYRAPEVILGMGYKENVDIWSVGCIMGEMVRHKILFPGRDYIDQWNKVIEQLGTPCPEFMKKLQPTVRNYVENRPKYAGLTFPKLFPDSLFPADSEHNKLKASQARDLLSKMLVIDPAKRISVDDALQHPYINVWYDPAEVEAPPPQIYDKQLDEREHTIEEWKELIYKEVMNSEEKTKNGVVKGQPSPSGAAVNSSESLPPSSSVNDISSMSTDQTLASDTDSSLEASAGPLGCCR

| SMILES | IC50 [1] [µM] | IC50 [2] [µM] |
| --- | --- | --- |
| Oc1cccc2ccc3c4ccc5cccc(O)c5c4oc3c12 [Compound III] | 2.8 | – |
| OCC(O)C(O)C(O)C(O)C(O)c1cc2c3ccc4cccc(O)c4c3oc2c2c(O)cccc12 (stereo not drawn) [Compound II] | 1.1 | 2.9 |
